The values below come from US10159756B2, “Complex of mannosyl serum albumin, method of preparing the same, optical imaging probe and kit comprising the same” (Korea University Research and Business Foundation, priority 2014, dated 2018).

One series concerns lymph nodes. Briefly: Biodistribution after injection into the mouse footpad. In kind it is in vivo. How it is done:
Each of the ICG: MSA, prepared in Example 3, and ICG, was treated into U937 cells (Korean Cell Line Bank (KCLB) No. 21593.1) activated with PMA (phorbol 12-myristate 13-acetate, Sigma, USA) (FIG. 9a), and the distribution thereof in the cells was monitored. […] In addition, each of ICG:MSA and ICG was injected into the mouse footpad, and the biodistribution thereof was examined.

The subject of series [1] is metastatic sentinel lymph node. Briefly: Detection of metastatic sentinel lymph node (ex vivo fluorescence, H & E staining, immunostaining). In kind it is in vivo, rabbit. The note with it: n = 4 for ICG group, n = 5 for ICG:MSA group. The procedure:
A VX2 rabbit tumor model (Radiology, 2005; 234:423-430) was established, and after 2 weeks, 60 μM of each of ICG and ICG:MSA was injected subcutaneously into the peritumor of the tumor model. Then, the efficiency with which each of ICG and ICG:MSA detects a sentinel lymph node was examined using a fluorescence imaging system (developed by the applicant). Dissected normal and metastatic lymph nodes were confirmed ex vivo by fluorescence, and whether cancer metastasized to the lymph nodes was examined by H & E tissue staining and immunostaining.

Regarding `CC1(C)C(/C=C/C=C/C=C/C=C2\N(CCCCS(=O)(=O)O)c3ccc4ccccc4c3C2(C)C)=[N+](CCCCS(=O)(=O)[O-])c2ccc3ccccc3c21` [ICG, Indocyanine green], the biodistribution entry in the series with lymph nodes was “distributed in the popliteal lymph nodes and did spread to the axillary lymph nodes within a short time”. In addition, in series [1], the “Metastatic SLN rate” value amounted to 50% and the Total amounted to 2.
